{"source": "ChEMBL document CHEMBL5244240", "about": "“MmpL3 inhibitors as antituberculosis drugs” (Eur J Med Chem, 2020)", "key": {"[1]": {"assay": "Clearance in mouse microsomes", "format": "ADME, Microsome"}, "[2]": {"test_system": "Mycobacterium tuberculosis", "assay": "Antitubercular activity against Mycobacterium tuberculosis H37Rv", "format": "functional"}, "[3]": {"test_system": "Mycobacteroides abscessus", "assay": "Antimycobacterial activity against Mycobacterium abscessus smooth variant", "format": "functional"}, "[4]": {"test_system": "Mycobacteroides abscessus", "assay": "Antimycobacterial activity against Mycobacterium abscessus rough variant", "format": "functional"}, "[5]": {"assay": "Clearance in mouse at 25 mg/kg, po", "format": "ADME, organism-based", "details": "in vivo"}, "[6]": {"assay": "Elimination half life in mouse at 25 mg/kg, po", "format": "ADME, organism-based", "details": "in vivo, read-out: beta t1/2 (converted)"}, "[7]": {"assay": "Tmax in mouse at 25 mg/kg, po", "format": "ADME, organism-based", "details": "in vivo"}, "[8]": {"assay": "Volume of distribution at steady state in mouse at 25 mg/kg, po", "format": "ADME, organism-based", "details": "in vivo"}, "[9]": {"test_system": "Mycobacterium tuberculosis", "assay": "Antitubercular activity against non replicating Mycobacterium tuberculosis bacilli by low oxygen recovery assay", "format": "functional"}, "[10]": {"test_system": "Mycobacterium tuberculosis", "assay": "Antitubercular activity against replicating Mycobacterium tuberculosis bacilli", "format": "functional"}, "[11]": {"test_system": "Mycobacteroides abscessus", "assay": "Antitubercular activity against Mycobacterium abscessus CIP104536", "format": "functional"}, "[12]": {"test_system": "Mycobacterium tuberculosis", "assay": "Antitubercular activity against Mycobacterium tuberculosis H37Rv infected in mouse assessed as log reduction in CFU in lung at 50 mg/kg", "format": "functional"}, "[13]": {"test_system": "Mycobacterium tuberculosis", "assay": "Antitubercular activity against Mycobacterium tuberculosis H37Rv infected in mouse assessed as log reduction in CFU in lung at 100 mg/kg", "format": "functional"}, "[14]": {"test_system": "Mycobacterium tuberculosis", "assay": "Antitubercular activity against Mycobacterium tuberculosis infected in mouse assessed as log reduction in bacterial burden in lung at 100 mg/kg", "format": "functional"}, "[15]": {"test_system": "Mycobacterium tuberculosis", "assay": "Antitubercular activity against Mycobacterium tuberculosis infected in mouse assessed as log reduction in bacterial burden in lung at 300 mg/kg", "format": "functional"}, "[16]": {"test_system": "Mycobacterium tuberculosis", "assay": "Antitubercular activity against Mycobacterium tuberculosis […]", "format": "functional"}, "[17]": {"test_system": "Mycobacterium tuberculosis", "assay": "Antitubercular activity against Mycobacterium tuberculosis H37Rv infected in mouse macrophage", "format": "functional"}, "[18]": {"test_system": "Mycobacterium tuberculosis", "assay": "Antitubercular activity against replicating Mycobacterium tuberculosis H37Rv", "format": "functional"}, "[19]": {"test_system": "Mycobacterium tuberculosis", "assay": "Bactericidal activity against replicating Mycobacterium tuberculosis H37Rv", "format": "functional"}, "[20]": {"test_system": "Mycobacterium tuberculosis", "assay": "Antitubercular activity against non-replicating Mycobacterium tuberculosis H37Rv", "format": "functional"}}, "data": [{"compound": "COc1ccc(-c2cc(CN3CCSCC3)c(C)n2-c2ccc(F)cc2)cc1", "values": [{"measurement": "CLH", "setting": "[1]", "result": 18.76, "unit": "mL/min/g"}, {"measurement": "MIC", "setting": "[2]", "result": 0.2, "unit": "µM"}]}, {"compound": "Cc1ccccc1CN1CCC(O)(c2ccc(Cl)c(C(F)(F)F)c2)CC1", "values": [{"measurement": "MIC", "setting": "[3]", "result": 0.32, "unit": "µM"}, {"measurement": "MIC", "setting": "[4]", "result": 0.32, "unit": "µM"}]}, {"compound": "c1cc2c(s1)CCOC21CCN(Cc2ccc3c(c2)OCCO3)CC1", "values": [{"measurement": "CLH", "setting": "[1]", "result": "> 30", "unit": "mL/min/g"}, {"measurement": "MIC", "setting": "[2]", "result": 0.3, "unit": "µM"}]}, {"compound": "CC1(C)CCC(NC(=O)c2cc3c(F)cc(F)cc3[nH]2)CC1", "values": [{"measurement": "CL/F", "setting": "[5]", "result": 18.7, "unit": "mL/min/kg"}, {"measurement": "half-life", "setting": "[6]", "result": 268, "unit": "min"}, {"measurement": "Tmax", "setting": "[7]", "result": 1.5, "unit": "h"}, {"measurement": "Vdss", "setting": "[8]", "result": 2240, "unit": "mL/kg"}]}, {"compound": "CC1(C)CCC(NC(=O)c2cc3c(Cl)cc(Cl)cc3[nH]2)CC1", "values": [{"measurement": "CL/F", "setting": "[5]", "result": 18.1, "unit": "mL/min/kg"}, {"measurement": "half-life", "setting": "[6]", "result": 315, "unit": "min"}, {"measurement": "Tmax", "setting": "[7]", "result": 1.5, "unit": "h"}, {"measurement": "Vdss", "setting": "[8]", "result": 4110, "unit": "mL/kg"}]}, {"compound": "Cc1c(CN2CCN(C)CC2)cc(-c2ccc(Cl)cc2)n1-c1ccc(Cl)cc1", "values": [{"measurement": "MIC", "setting": "[9]", "result": 18.5, "unit": "µM"}, {"measurement": "MIC", "setting": "[10]", "result": 5, "unit": "µM"}]}, {"compound": "Cc1cc2nc(CCC3CCCCC3)[nH]c2cc1C", "values": [{"measurement": "MIC", "setting": "[11]", "result": 0.125, "unit": "µg/mL"}, {"measurement": "MIC", "setting": "[2]", "result": 0.75, "unit": "µg/mL"}]}, {"compound": "CCCn1cnc2cc(NCc3ccc(Cl)cc3Cl)ccc21", "values": [{"measurement": "IC90", "setting": "[2]", "result": 16, "unit": "µM"}]}, {"compound": "Cc1c(CN2CCOCC2)cc(-c2ccc(C(C)C)cc2)n1-c1ccc(F)cc1", "values": [{"measurement": "CLH", "setting": "[1]", "result": 1.4, "unit": "mL/min/g"}, {"measurement": "MIC", "setting": "[2]", "result": 0.12, "unit": "µM"}]}, {"compound": "FC(F)(F)Oc1ccc(Oc2ccc(CN3CCC4(CC3)OCCc3sccc34)cc2)cc1", "values": [{"measurement": "CLH", "setting": "[1]", "result": 1.2, "unit": "mL/min/g"}, {"measurement": "log(activity)", "setting": "[12]", "result": 2.3}, {"measurement": "log(activity)", "setting": "[13]", "result": 2.7}, {"measurement": "MIC", "setting": "[2]", "result": 0.06, "unit": "µM"}]}, {"compound": "CCc1ccc([C@H]2C[C@@H](C(F)(F)F)n3ncc(C(=O)NCc4ccc5c(c4)OCO5)c3N2)cc1", "values": [{"measurement": "log(activity)", "setting": "[14]", "result": 1.5}, {"measurement": "log(activity)", "setting": "[15]", "result": 2.2}, {"measurement": "MIC", "setting": "[2]", "result": 0.16, "unit": "µM"}]}, {"compound": "O=C(NCCc1ccc(Cl)cc1)C1(c2cccs2)CCCCC1", "values": [{"measurement": "MIC99", "setting": "[16]", "result": 19.3, "unit": "µM"}]}, {"compound": "CCc1ccc([C@H]2C[C@@H](C(F)(F)F)n3ncc(C(=O)NCc4ccc(OC)cc4)c3N2)cc1", "values": [{"measurement": "MIC", "setting": "[2]", "result": 0.3, "unit": "µM"}, {"measurement": "MIC80", "setting": "[17]", "result": 0.16, "unit": "µM"}]}, {"compound": "FC(F)(F)Oc1ccc(Oc2ccc(CNCCNC3C4CC5CC(C4)CC3C5)cc2)cc1", "note": "(stereo not given)", "values": [{"measurement": "MIC99", "setting": "[18]", "result": 2.5, "unit": "µM"}, {"measurement": "MBC99", "setting": "[19]", "result": 5, "unit": "µM"}]}, {"compound": "CC(C)=CCC/C(C)=C\\CNCCNC1C2CC3CC(C2)CC1C3", "note": "(stereo not given)", "values": [{"measurement": "MIC", "setting": "[18]", "result": 0.7, "unit": "µM"}, {"measurement": "MIC", "setting": "[20]", "result": 0.7, "unit": "µM"}]}]}
